This note sets out measurements from patent US20240208992A1, “MACROCYCLES AS CFTR MODULATORS” (Idorsia Pharmaceuticals Ltd, priority 2021, published 2024).

The target in this assay is human F508del-CFTR (Homo sapiens, UniProt P13569, DEL508-508). The assay can be described thus: F508del-CFTR cell surface expression (corrector activity), DiscoveRx ß-galactosidase complementation chemiluminescence assay in recombinant U2OS cell line.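 For all read-outs here: U2OS cells co-expressing ProLink-tagged F508del-CFTR and a membrane-anchored enzyme acceptor, where more surface CFTR restores β-galactosidase activity measured by chemiluminescence.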 The following applies: for EC50: EC50, F508del-CFTR cell surface expression, U2OS cells, 16h compound incubation, geomean values; for Emax: U2OS, in relation to Emax of corrector lumacaftor (=100%), arithmetic mean values.

Structures are written as SMILES.

Sequence of human F508del-CFTR (P13569 with tags, fused parts or gaps DEL508-508): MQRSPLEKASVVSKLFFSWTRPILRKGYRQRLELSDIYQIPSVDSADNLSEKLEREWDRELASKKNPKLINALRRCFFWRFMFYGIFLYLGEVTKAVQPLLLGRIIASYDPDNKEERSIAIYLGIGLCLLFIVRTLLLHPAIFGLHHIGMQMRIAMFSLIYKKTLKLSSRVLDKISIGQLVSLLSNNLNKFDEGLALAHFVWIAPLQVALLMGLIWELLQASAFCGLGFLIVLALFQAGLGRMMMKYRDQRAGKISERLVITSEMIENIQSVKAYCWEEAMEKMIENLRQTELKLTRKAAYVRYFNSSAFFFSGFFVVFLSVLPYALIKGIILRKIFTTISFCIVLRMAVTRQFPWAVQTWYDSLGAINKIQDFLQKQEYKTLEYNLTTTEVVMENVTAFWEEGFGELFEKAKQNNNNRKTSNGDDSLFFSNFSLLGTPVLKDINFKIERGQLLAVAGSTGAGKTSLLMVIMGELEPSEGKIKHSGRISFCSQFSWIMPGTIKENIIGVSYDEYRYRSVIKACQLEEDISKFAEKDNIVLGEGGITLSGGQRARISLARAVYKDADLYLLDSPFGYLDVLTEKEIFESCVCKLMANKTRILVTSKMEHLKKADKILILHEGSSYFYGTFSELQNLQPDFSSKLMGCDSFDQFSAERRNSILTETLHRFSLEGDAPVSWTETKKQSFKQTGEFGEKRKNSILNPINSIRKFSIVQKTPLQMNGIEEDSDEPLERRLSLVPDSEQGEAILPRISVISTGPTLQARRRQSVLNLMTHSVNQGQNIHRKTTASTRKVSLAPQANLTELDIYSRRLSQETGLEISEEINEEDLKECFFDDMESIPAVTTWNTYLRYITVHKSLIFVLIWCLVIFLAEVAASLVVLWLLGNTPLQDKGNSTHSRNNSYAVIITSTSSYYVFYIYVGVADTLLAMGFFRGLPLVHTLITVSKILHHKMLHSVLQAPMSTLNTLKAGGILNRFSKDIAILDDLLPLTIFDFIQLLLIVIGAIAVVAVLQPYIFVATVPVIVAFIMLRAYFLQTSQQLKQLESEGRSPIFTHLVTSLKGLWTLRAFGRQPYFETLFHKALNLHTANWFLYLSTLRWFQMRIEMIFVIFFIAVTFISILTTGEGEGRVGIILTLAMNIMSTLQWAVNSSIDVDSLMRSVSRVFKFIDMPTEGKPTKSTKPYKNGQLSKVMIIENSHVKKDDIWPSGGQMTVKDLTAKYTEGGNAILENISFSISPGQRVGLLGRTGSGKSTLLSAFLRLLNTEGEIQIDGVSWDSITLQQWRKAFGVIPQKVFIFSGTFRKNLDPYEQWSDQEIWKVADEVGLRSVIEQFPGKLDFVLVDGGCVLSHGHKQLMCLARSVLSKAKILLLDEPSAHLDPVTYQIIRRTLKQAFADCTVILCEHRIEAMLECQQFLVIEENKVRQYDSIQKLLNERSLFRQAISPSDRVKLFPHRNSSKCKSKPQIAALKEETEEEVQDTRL

Take `CC(C)C[C@H]1C(=O)N2CCCC[C@@H]2C(=O)N[C@H](Cc2ccccc2)COc2cnc3ccccc3c2C(=O)N[C@H](C(=O)NCCc2ccc(-n3nccn3)cc2)CC(=O)N1C` [Example 463, (9S,13S,19aR,22R)-N-(4-(2H-1,2,3-triazol-2-yl)phenethyl)-22-benzyl-13-isobutyl-12-methyl-7,11,14,20-tetraoxo-7,8,9,10,11,12,13,14,17,18,19,19a,20,21,22,23-hexadecahydro-16H-pyrido[2′,1′:6,7][1]oxa[4,7,10,14]tetraazacycloheptadecino[17,16-c]quinoline-9-carboxamide]: the EC50 was found to be 0.278 µM and the Emax turned out to be 269%.
The matching figures for `CC(C)C[C@H]1C(=O)N2CCCC[C@H]2C(=O)N[C@H](Cc2ccccc2)COc2cnc3ccccc3c2C(=O)N[C@H](C(=O)NCCc2ccc(-n3nccn3)cc2)CC(=O)N1C` [Example 464, (9S,13S,19aS,22R)-N-(4-(2H-1,2,3-triazol-2-yl)phenethyl)-22-benzyl-13-isobutyl-12-methyl-7,11,14,20-tetraoxo-7,8,9,10,11,12,13,14,17,18,19,19a,20,21,22,23-hexadecahydro-16H-pyrido[2′,1′:6,7][1]oxa[4,7,10,14]tetraazacycloheptadecino[17,16-c]quinoline-9-carboxamide]: 0.319 µM and 109%.
The matching figures for `COc1cccc(CCNC(=O)[C@@H]2CC(=O)N(C)[C@@H](CC(C)C)C(=O)N(C)CC(=O)N[C@H](Cc3ccccc3)COc3ccc4cnccc4c3C(=O)N2)c1` [Example 465]: 0.8 µM and 387%.
As for `COc1nccc2c1C(=O)N[C@H](C(=O)NCCc1cccc(-n3nccn3)c1)CC(=O)N(C)[C@@H](CC(C)C)C(=O)N1CCCC[C@@H]1C(=O)N[C@H](Cc1ccccc1)CO2` [Example 466, (7S,11S,17aR,20R)-N-(3-(2H-1,2,3-triazol-2-yl)phenethyl)-20-benzyl-11-isobutyl-4-methoxy-10-methyl-5,9,12,18-tetraoxo-5,6,7,8,9,10,11,12,15,16,17,17a,18,19,20,21-hexadecahydro-14H-dipyrido[2,1-f:3′,4′-p][1]oxa[4,7,10,14]tetraazacycloheptadecine-7-carboxamide], the EC50 was found to be 0.548 µM and the Emax turned out to be 328%.
The matching figures for `COc1nccc2c1C(=O)N[C@H](C(=O)NCCc1cccc(-n3nccn3)c1)CC(=O)N(C)[C@@H](CC(C)C)C(=O)N1CCCC[C@H]1C(=O)N[C@H](Cc1ccccc1)CO2` [Example 467, (7S,11S,17aS,20R)-N-(3-(2H-1,2,3-triazol-2-yl)phenethyl)-20-benzyl-11-isobutyl-4-methoxy-10-methyl-5,9,12,18-tetraoxo-5,6,7,8,9,10,11,12,15,16,17,17a,18,19,20,21-hexadecahydro-14H-dipyrido[2,1-f:3′,4′-p][1]oxa[4,7,10,14]tetraazacycloheptadecine-7-carboxamide]: 0.936 µM and 152%.
In the case of `COc1nccc2c1C(=O)N[C@H](C(=O)NCCc1ccc(-n3nccn3)cc1)CC(=O)N(C)[C@@H](CC(C)C)C(=O)N1CCCC[C@@H]1C(=O)N[C@H](Cc1ccccc1)CO2` [Example 468, (7S,11S,17aR,20R)-N-(4-(2H-1,2,3-triazol-2-yl)phenethyl)-20-benzyl-11-isobutyl-4-methoxy-10-methyl-5,9,12,18-tetraoxo-5,6,7,8,9,10,11,12,15,16,17,17a,18,19,20,21-hexadecahydro-14H-dipyrido[2,1-f:3′,4′-p][1]oxa[4,7,10,14]tetraazacycloheptadecine-7-carboxamide], the EC50 is 0.504 µM and the maximal response (Emax) worked out at 361%.
The matching figures for `COc1cccc(CCNC(=O)[C@@H]2CC(=O)N(C)[C@@H](CC(C)C)C(=O)N3CCCC[C@@H]3C(=O)N[C@H](Cc3ccccc3)COc3nc4ccccn4c3C(=O)N2)c1` [Example 469, (7S,11S,22R,24aR)-22-benzyl-7-isobutyl-N-(3-methoxyphenethyl)-8-methyl-6,9,13,24-tetraoxo-1,3,4,6,7,8,9,10,11,12,13,21,22,23,24,24a-hexadecahydro-2H-pyrido[2,1-f]pyrido[2′,1′:2,3]imidazo[4,5-p][1]oxa[4,7,10,14]tetraazacycloheptadecine-11-carboxamide]: 0.381 µM and 110%.
On to `Cc1cc(CCNC(=O)[C@@H]2CC(=O)N(C)[C@@H](CC(C)C)C(=O)N3CCCC[C@@H]3C(=O)N[C@H](Cc3ccccc3)COc3nc4ccccn4c3C(=O)N2)on1` [Example 470, (7S,11S,22R,24aR)-22-benzyl-7-isobutyl-8-methyl-N-(2-(3-methylisoxazol-5-yl)ethyl)-6,9,13,24-tetraoxo-1,3,4,6,7,8,9,10,11,12,13,21,22,23,24,24a-hexadecahydro-2H-pyrido[2,1-f]pyrido[2′,1′:2,3]imidazo[4,5-p][1]oxa[4,7,10,14]tetraazacycloheptadecine-11-carboxamide], for which the EC50 was 0.662 µM and the Emax came out at 169%.
Consider `COc1cccc(CCNC(=O)[C@@H]2CC(=O)N(C)[C@@H](CC(C)C)C(=O)N(C)C3(CC3)C(=O)N[C@H](Cc3ccccc3)COc3ccc4cccnc4c3C(=O)N2)c1` [Example 471, (9′R,15′S,19′S)-9′-benzyl-15′-isobutyl-N-(3-methoxyphenethyl)-13′,16′-dimethyl-11′,14′,17′,21′-tetraoxo-8′,9′,10′,11′,14′,15′,16′,17′,18′,19′,20′,21′-dodecahydro-13′H-spiro[cyclopropane-1,12′-[1]oxa[4,7,10,14]tetraazacycloheptadecino[17,16-h]quinoline]-19′-carboxamide], for which the EC50 was 0.981 µM and the Emax is 278%.
For `CC(C)C[C@H]1C(=O)N2CCCC[C@@H]2C(=O)N[C@H](Cc2ccccc2)COc2ccc3ncccc3c2C(=O)N[C@H](C(=O)NCCc2ccc(-n3nccn3)cc2)CC(=O)N1C` [Example 472, (9S,13S,19aR,22R)-N-(4-(2H-1,2,3-triazol-2-yl)phenethyl)-22-benzyl-13-isobutyl-12-methyl-7,11,14,20-tetraoxo-7,8,9,10,11,12,13,14,17,18,19,19a,20,21,22,23-hexadecahydro-16H-pyrido[2′,1′:6,7][1]oxa[4,7,10,14]tetraazacycloheptadecino[16,17-f]quinoline-9-carboxamide], the EC50 was found to be 0.284 µM and the Emax came out at 239%.
The matching figures for `CC(C)C[C@H]1C(=O)N2CCCC[C@H]2C(=O)N[C@H](Cc2ccccc2)COc2ccc3ncccc3c2C(=O)N[C@H](C(=O)NCCc2ccc(-n3nccn3)cc2)CC(=O)N1C` [Example 473, (9S,13S,19aS,22R)-N-(4-(2H-1,2,3-triazol-2-yl)phenethyl)-22-benzyl-13-isobutyl-12-methyl-7,11,14,20-tetraoxo-7,8,9,10,11,12,13,14,17,18,19,19a,20,21,22,23-hexadecahydro-16H-pyrido[2′,11:6,7][1]oxa[4,7,10,14]tetraazacycloheptadecino[16,17-f]quinoline-9-carboxamide]: 0.585 µM and 119%.
